27 molecules from patent US20140065103A1 (VERTEX PHARMACEUTICALS INCORPORATED, priority 2010, published 2014) can be followed below.

For series [1], the system named is HCV sub-genomic replicon of genotype 1a in replicon cell line W11.8. As to the kind of experiment: microbe, parasite or virus in culture. Format: cell-based, Hepatitis C virus. Conditions: Hepatitis C virus, W11.8, 96 h, read-out: HCV-Replicon-ELISA-1a IC50.
A short description of series [2]: [3H]Thymidine incorporation assay (cytotoxicity, CC50). The note with it: human. (In general: Dividing cells build labelled thymidine or BrdU into new DNA.)

pIC50: −log10 of the molar value.

For orientation: pIC50 means the negative decadic logarithm of the IC50, by convention in mol/L. As a reminder, the CC50 is the concentration giving 50% cytotoxicity. A low value points to greater toxicity to the cells. `CC(C)(C)C#Cc1cc(N(Cc2cccnc2)C(=O)[C@H]2CC[C@H](C)CC2)c(C(=O)O)s1` [Compound 1]: the negative-log IC50 (pIC50) in series [1] is > 7.00. Besides, the CC50 at 72 h in series [2] was 10 to 100 µM.
With `Cc1ccc(C(=O)N(c2cc(C#CC(C)(C)C)sc2C(=O)O)[C@H]2CC[C@H](O)CC2)c(F)c1F` [Compound 89, 3-[(2,3-Difluoro-4-methyl-benzoyl)-(trans-4-hydroxy-cyclohexyl)-amino]-5-(3,3-dimethyl-but-1-ynyl)-thiophene-2-carboxylic acid], in series [1], the pIC50 was > 7.00.
`CC(C)N(c1cc(C#CC2CC2)sc1C(=O)O)C(=O)[C@H]1CC[C@H](C)CC1` [Compound 20, 5-Cyclopropylethynyl-3-[isopropyl-(trans-4-methyl-cyclohexanecarbonyl)-amino]-thiophene-2-carboxylic acid]: the negative logarithm of the IC50 (pIC50) in series [1] was 6.00 to 7.00. In series [2], this molecule came in with a CC50 at 72 h of 10 to 100 µM.
The matching figures for `CC(C)(C)C#Cc1cc(N(C(=O)c2ccc(C(F)(F)F)cc2)[C@H]2CC[C@H](O)CC2)c(C(=O)O)s1` [Compound 82, 5-(3,3-Dimethyl-but-1-ynyl)-3-[(trans-4-hydroxy-cyclohexyl)-(4-trifluoromethyl-benzoyl)-amino]thiophene-2-carboxylic acid]: 6.00 to 7.00 and 10 to 100 µM.
In the case of `Cc1ccc(C(=O)N(c2cc(C#CC(C)(C)C)sc2C(=O)O)[C@H]2CC[C@H](O)CC2)c(Cl)c1` [Compound 84, 3-[(2-Chloro-4-methyl-benzoyl)-(trans-4-hydroxy-cyclohexyl)-amino]-5-(3,3-dimethyl-but-1-ynyl)-thiophene-2-carboxylic acid], the pIC50 in series [1] was > 7.00.
On the same count and under the same terms, as for `CC(C)(C)C#Cc1cc(N(C(=O)c2ccc(Cl)c(F)c2)[C@H]2CC[C@H](O)CC2)c(C(=O)O)s1` [Compound 94, 3-[(4-Chloro-3-fluoro-benzoyl)-(trans-4-hydroxy-cyclohexyl)-amino]-5-(3,3-dimethyl-but-1-ynyl)-thiophene-2-carboxylic acid], the figure is 6.00 to 7.00.
Turning to `CN(C)C(=O)[C@H]1C[C@@H](N(c2cc(C#CC(C)(C)C)sc2C(=O)O)C(=O)[C@H]2CC[C@H](C)CC2)C1` [Compound 11, 5-(3,3-dimethylbut-1-yn-1-yl)-3-(trans-4-methyl-N-(cis-3-(dimethylcarbamoyl)cyclobutyl)cyclohexanecarboxamido)thiophene-2-carboxylic acid], the pIC50 in series [1] is > 7.00. Moreover, in series [2], the CC50 at 72 h is 10 to 100 µM.
Taken in the same sequence, the figures for `C=CCO[C@H]1CC[C@H](N(c2cc(C#CC(C)(C)C)sc2C(=O)O)C(=O)[C@H]2CC[C@H](C)CC2)CC1` [Compound 12, 3-[(trans-4-Allyloxy-cyclohexyl)-(trans-4-methyl-cyclohexanecarbonyl)-amino]-5-(3,3-dimethyl-but-1-ynyl)-thiophene-2-carboxylic acid] were > 7.00 and 10 to 100 µM.
The matching figures for `CC(C)(C)C#Cc1cc(N(C(=O)[C@H]2CC[C@H](C)CC2)C2CCC(F)(F)CC2)c(C(=O)O)s1` [Compound 14, 3-[(4,4-Difluoro-cyclohexyl)-(trans-4-methyl-cyclohexanecarbonyl)-amino]-5-(3,3-dimethyl-but-1-ynyl)-thiophene-2-carboxylic acid]: > 7.00 and 10 to 100 µM.
As to `CC(C)(C)C#Cc1cc(N(C(=O)[C@H]2CC[C@H](C)CC2)C2CC=C(F)CC2)c(C(=O)O)s1` (relative stereo) [Compound 15, 5-(3,3-Dimethyl-but-1-ynyl)-3-[(4-fluoro-cyclohex-3-enyl)-(trans-4-methyl-cyclohexanecarbonyl)-amino]-thiophene-2-carboxylic acid], the pIC50 in series [1] was > 7.00. For the same molecule, in series [2], the CC50 at 72 h was in the range of 10 to 100 µM.
As for `CC(C)(C)C#Cc1cc(N(C(=O)c2ccc(Cl)cc2)[C@H]2CC[C@H](O)CC2)c(C(=O)O)s1` [Compound 81, 3-[(4-Chloro-benzoyl)-(trans-4-hydroxy-cyclohexyl)-amino]-5-(3,3-dimethyl-but-1-ynyl)-thiophene-2-carboxylic acid], the pIC50 in series [1] is 6.00 to 7.00.
Take `Cc1nnc(CN(c2cc(C#CC(C)(C)C)sc2C(=O)O)C(=O)[C@H]2CC[C@H](C)CC2)o1` [Compound 24, 5-(3,3-Dimethyl-but-1-ynyl)-3-[(trans-4-methyl-cyclohexanecarbonyl)-(5-methyl-[1,3,4]oxadiazol-2-ylmethyl)-amino]-thiophene-2-carboxylic acid]: the CC50 at 72 h in series [2] is < 10 µM.
Consider `CC(C)(C)C#Cc1cc(N(CCN2CCOCC2)C(=O)[C@H]2CC[C@H](C)CC2)c(C(=O)O)s1` [Compound 48, 5-(3,3-Dimethylbut-1-yn-1-yl)-3-(trans-4-methyl-N-(2-morpholinoethyl)cyclohexanecarboxamido)thiophene-2-carboxylic acid], for which, in series [1], the pIC50 was > 7.00. The molecule further yielded a cytotoxic concentration (CC50) at 72 h in series [2] of 10 to 100 µM.
Consider `CC(CN1CCOCC1)N(c1cc(C#CC(C)(C)C)sc1C(=O)O)C(=O)[C@H]1CC[C@H](C)CC1` (relative stereo) [Compound 72, 5-(3,3-Dimethylbut-1-yn-1-yl)-3-(trans-4-methyl-N-(1-morpholinopropan-2-yl)cyclohexanecarboxamido)thiophene-2-carboxylic acid], for which the pIC50 in series [1] is > 7.00. In series [2], this molecule yielded a half-maximal cytotoxic concentration (CC50) at 72 h of 10 to 100 µM.
Consider `Cn1nccc1CN(c1cc(C#CC(C)(C)C)sc1C(=O)O)C(=O)[C@H]1CC[C@H](C)CC1` [Compound 77, 5-(3,3-Dimethylbut-1-ynyl)-3-((trans)-4-methyl-N-((1-methyl-1H-pyrazol-5-yl)methyl)cyclohexanecarboxamido)thiophene-2-carboxylic acid], for which, in series [1], the negative logarithm of the IC50 (pIC50) was > 7.00. Moreover, the 50% cytotoxic concentration (CC50) at 72 h in series [2] was > 100 µM.
The matching figures for `Cc1ccc(C(=O)N(c2cc(C#CC(C)(C)C)sc2C(=O)O)[C@H]2CC[C@H](O)CC2)cc1` [Compound 86, 5-(3,3-Dimethyl-but-1-ynyl)-3-[(trans-4-hydroxy-cyclohexyl)-(4-methyl-benzoyl)-amino]-thiophene-2-carboxylic acid]: > 7.00 and 10 to 100 µM.
Consider `CC(C)N(c1cc(C#Cc2ccccc2)sc1C(=O)O)C(=O)[C@H]1CC[C@H](C)CC1` [Compound 21, 3-[Isopropyl-(trans-4-methyl-cyclohexanecarbonyl)-amino]-5-phenylethynyl-thiophene-2-carboxylic acid], for which the negative-log IC50 (pIC50) in series [1] is 5.00 to 6.00. This molecule also returned a CC50 at 72 h in series [2] of 10 to 100 µM.
The matching figures for `CC(C)(C)C#Cc1cc(N(C(=O)[C@H]2CC[C@H](C)CC2)C2CC2)c(C(=O)O)s1` [Compound 16, 3-[Cyclopropyl-(trans-4-methyl-cyclohexanecarbonyl)-amino]-5-(3,3-dimethyl-but-1-ynyl)-thiophene-2-carboxylic acid]: 6.00 to 7.00 and 10 to 100 µM.
Turning to `CC(C)(C)C#Cc1cc(N(C(=O)[C@H]2CC[C@H](C)CC2)[C@H]2C[C@@H](CO)C2)c(C(=O)O)s1` [Compound 76, 5-(3,3-dimethylbut-1-yn-1-yl)-3-(trans-4-methyl-N-(cis-3-(hydroxymethyl)cyclobutyl)cyclohexanecarboxamido)thiophene-2-carboxylic acid], the negative-log IC50 (pIC50) in series [1] is > 7.00. Besides, in series [2], the cytotoxic concentration (CC50) at 72 h is > 100 µM.
Take `Cn1cc(CN(c2cc(C#CC(C)(C)C)sc2C(=O)O)C(=O)[C@H]2CC[C@H](C)CC2)cn1` [Compound 67, 5-(3,3-Dimethylbut-1-ynyl)-3-((trans)-4-methyl-N-((1-methyl-1H-pyrazol-4-yl)methyl)cyclohexanecarboxamido)thiophene-2-carboxylic acid]: in series [1], the negative-log IC50 (pIC50) is 6.00 to 7.00. Further, the CC50 at 72 h in series [2] was > 100 µM.
The matching figures for `Cc1ccc(C(=O)N(c2cc(C#CC(C)(C)C)sc2C(=O)O)[C@H]2CC[C@H](O)CC2)c(F)c1` [Compound 85, 5-(3,3-Dimethyl-but-1-ynyl)-3-[(2-fluoro-4-methyl-benzoyl)-(trans-4-hydroxy-cyclohexyl)-amino]thiophene-2-carboxylic acid]: > 7.00 and 10 to 100 µM.
The matching figures for `Cn1ccc(CN(c2cc(C#CC(C)(C)C)sc2C(=O)O)C(=O)[C@H]2CC[C@H](C)CC2)n1` [Compound 71, 5-(3,3-Dimethylbut-1-ynyl)-3-((trans)-4-methyl-N-((1-methyl-1H-pyrazol-3-yl)methyl)cyclohexanecarboxamido)thiophene-2-carboxylic acid]: > 7.00 and 10 to 100 µM.
The matching figures for `CC(C)N(c1cc(C#CC(F)(F)F)sc1C(=O)O)C(=O)[C@H]1CC[C@H](C)CC1` [Compound 23, 3-[Isopropyl-(trans-4-methyl-cyclohexanecarbonyl)-amino]-5-trifluoroprop-1-ynyl-thiophene-2-carboxylic acid]: 6.00 to 7.00 and 10 to 100 µM.
`CC(C)(C)C#Cc1cc(N(C(=O)c2ccccc2Cl)[C@H]2CC[C@H](O)CC2)c(C(=O)O)s1` [Compound 87, 3-[(2-Chloro-benzoyl)-(trans-4-hydroxy-cyclohexyl)-amino]-5-(3,3-dimethyl-but-1-ynyl)-thiophene-2-carboxylic acid]: in series [1], the pIC50 is 5.00 to 6.00.
For `CC(C)N(c1cc(C#CC(C)(C)O)sc1C(=O)O)C(=O)[C@H]1CC[C@H](C)CC1` [Compound 19, 5-(3-Hydroxy-3-methyl-but-1-ynyl)-3-[isopropyl-(trans-4-methyl-cyclohexanecarbonyl)-amino]-thiophene-2-carboxylic acid], the pIC50 in series [1] was 6.00 to 7.00. Further, the cytotoxic concentration (CC50) at 72 h in series [2] was > 100 µM.
For the molecule `Cc1ccccc1C(=O)N(c1cc(C#CC(C)(C)C)sc1C(=O)O)[C@H]1CC[C@H](O)CC1` [Compound 88, 5-(3,3-Dimethyl-but-1-ynyl)-3-[(trans-4-hydroxy-cyclohexyl)-(2-methyl-benzoyl)-amino]-thiophene-2-carboxylic acid], the pIC50 in series [1] was 6.00 to 7.00.
In the case of `CC(C)(C)C#Cc1cc(N(C(=O)c2ccc(F)cc2)[C@H]2CC[C@H](O)CC2)c(C(=O)O)s1` [Compound 92, 5-(3,3-Dimethyl-but-1-ynyl)-3-[(4-fluoro-benzoyl)-(trans-4-hydroxy-cyclohexyl)-amino]-thiophene-2-carboxylic acid], in series [1], the pIC50 is 5.00 to 6.00.
